Laboratory results as given in patent US5173297A, “Bacteriocin from Lactococcus lactis subspecies lactis” (Quest International Flavors & Food Ingredients Company …, priority 1991, dated 1992).

What was measured:
Assay in all cases: Spectrum of antimicrobial activity
Design in all cases: key: + = inhibition; - = no inhibition
Details in all cases: pure, titer 3200 AU/ml
[1] = tested on: L. plantarum 346; assay type: cell-based, Lactobacillus plantarum
[2] = tested on: L. plantarum 355; assay type: cell-based, Lactobacillus plantarum
[3] = tested on: L. casei 326; assay type: cell-based, Lactobacillus casei
[4] = tested on: L. casei 842; assay type: cell-based, Lactobacillus casei
[5] = tested on: L. brevis 329; assay type: cell-based, Lactobacillus brevis
[6] = tested on: L. brevis 888; assay type: cell-based, Lactobacillus brevis
[7] = tested on: L. fermentum 342; assay type: cell-based, Lactobacillus fermentum
[8] = tested on: L. fermentum 701; assay type: cell-based, Lactobacillus fermentum
[9] = tested on: P. acidilactici PAC 1.0; assay type: cell-based, Pediococcus acidilactici
[10] = tested on: P. acidilactici A; assay type: cell-based, Pediococcus acidilactici
[11] = tested on: P. acidilactici B; assay type: cell-based, Pediococcus acidilactici
[12] = tested on: P. acidilactici C; assay type: cell-based, Pediococcus acidilactici
[13] = tested on: P. acidilactici D; assay type: cell-based, Pediococcus acidilactici
[14] = tested on: P. pentosaceus FBB63C; assay type: cell-based, Pediococcus pentosaceus
Description: Colonies appearing on the agar plates were screened for antibacterial activity against a selected indicator, which usually predicted a wide antibacterial spectrum. The indicator chosen was Pediococcus pentosaceus FBB63C (Gonzalez, C. F., and B. S. Kunka, Appl. Environ. Microbiol. 53:2534-2538 (1987) and U.S. Pat. No. 4,883,673 to Gonzalez. Antibacterial activity was determined by picking colonies to replicate agar plates containing 1.9% sodium beta-glycerophosphate as buffer and after appearance of colonies overlaying with indicator.
To ascertain if the antibacterial substance is secreted into liquid medium, the cultures were grown in MRS broth and cell free filtrates of turbid cultures were made and the filtrate posted on a seeded semisolid agar overlay of the indicator. Antibacterial activity was quantitated by assigning arbitrary units. One arbitrary unit (AU) was defined as 5 μl of the culture supernatant yielding a definite, clear zone of inhibition on the indicator lawn. The titer was expressed as the reciprocal of the highest dilution of supernatant showing inhibition.

[15] = tested on: L. monocytogenes 04; assay type: cell-based, Listeria monocytogenes
[16] = tested on: L. monocytogenes 08; assay type: cell-based, Listeria monocytogenes
[17] = tested on: L. monocytogenes 36; assay type: cell-based, Listeria monocytogenes
[18] = tested on: L. monocytogenes 38; assay type: cell-based, Listeria monocytogenes
[19] = tested on: L. monocytogenes 59; assay type: cell-based, Listeria monocytogenes
[20] = tested on: L. monocytogenes 62; assay type: cell-based, Listeria monocytogenes
[21] = tested on: L. monocytogenes 69; assay type: cell-based, Listeria monocytogenes
[22] = tested on: S. mutans GS5; assay type: cell-based, Streptococcus mutans
[23] = tested on: S. mutans V262; assay type: cell-based, Streptococcus mutans
[24] = tested on: B. subtilis RM125; assay type: cell-based, Bacillus subtilis
[25] = tested on: B. subtilis amylase^+; assay type: cell-based, Bacillus subtilis
[26] = tested on: L. lactis LLA 1.0; assay type: cell-based, Lactococcus lactis
[27] = tested on: L. lactis LLA 2.0; assay type: cell-based, Lactococcus lactis

nisin [Nisin Pure]
+: inhibition of indicator strain L. plantarum 346 [1] | inhibition of indicator strain L. plantarum 355 [2] | inhibition of indicator strain L. casei 326 [3] | inhibition of indicator strain L. casei 842 [4] | inhibition of indicator strain L. brevis 329 [5] | inhibition of indicator strain L. brevis 888 [6] | inhibition of indicator strain L. fermentum 342 [7] | inhibition of indicator strain L. fermentum 701 [8] | inhibition of indicator strain P. acidilactici PAC 1.0 [9] | inhibition of indicator strain P. acidilactici A [10] | inhibition of indicator strain P. acidilactici B [11] | inhibition of indicator strain P. acidilactici C [12] | inhibition of indicator strain P. acidilactici D [13] | inhibition of indicator strain P. pentosaceus FBB63C [14] | inhibition of indicator strain L. monocytogenes 04 [15] | inhibition of indicator strain L. monocytogenes 08 [16] | inhibition of indicator strain L. monocytogenes 36 [17] | inhibition of indicator strain L. monocytogenes 38 [18] | inhibition of indicator strain L. monocytogenes 59 [19] | inhibition of indicator strain L. monocytogenes 62 [20] | inhibition of indicator strain L. monocytogenes 69 [21] | inhibition of indicator strain S. mutans GS5 [22] | inhibition of indicator strain B. subtilis RM125 [24] | inhibition of indicator strain B. subtilis amylase^+ [25] | inhibition of indicator strain L. lactis LLA 1.0 [26] | inhibition of indicator strain L. lactis LLA 2.0 [27]
-: inhibition of indicator strain S. mutans V262 [23]
